These results are taken from the NIST ThermoML archive (doi:10.1021/je4000845).

SMILES strings stand for the structures. ± gives the expanded uncertainty stated by the source.

The conditions of the data set: Crystal; visual observation.

As for `Nc1cccc(C(=O)O)c1` [3-aminobenzoic acid], the Normal melting temperature came out at 174.1 ± 1 °C.
